Source: patent US10675286B2, “Heterocyclic compounds and uses thereof” (Infinity Pharmaceuticals, Inc., priority 2014, dated 2020)
Entries after “also recorded” stand apart in the source; their conditions may differ.

Legend:
[1] = Stability in simulated gastric fluid; format: physicochemical; conditions: 38° simulated gastric fluid
Text: The phyiscochemical properties of Compound BB are drug-like, and suitable for use of the compound as a drug.

[2] = Oral pharmacokinetics of Compound BB in rat; format: in vivo; conditions: 7.5 mg/kg oral
Text: (§1) Compound BB's oral exposure is high in rat, dog and monkey. Good oral bioavailability and low clearance in rodent and non-rodent animal species results in high oral exposure.

Human hep = Human hep viability (ADME characteristics, Table 25); format: cell-based
Lewis Lung Carcinoma [3] = assay: Lewis Lung Carcinoma (LLC) tumor brei model; format: in vivo, mouse
Protocol: LLC Lewis Lung carcinoma model: LLC cells are derived from a spontaneous lung tumor from a C57BL/6 mouse and can be studied as a s.c. tumor when injected in the flank, or as an orthotopic tumor if injected i.v., following which it localizes to the lung.
Compound BB was tested in the Lewis Lung Carcinoma model, which is known in the art and briefly described hereinabove.
LLC tumor brei model was prepared and injected subcutaneously into a mouse in the hind flank region. The tumor brei was prepared as follows. LL2-Luc tumor cells were grown in culture in DMEM+10% FBS. Cells were implanted @ 1×10^6 cells/100 uL SC in the flank of C57 Albino mice (male) When tumors reached 1000 mm3, tumors were harvested. Only the white, living tissue was harvested. Any material containing visable blood or necrotic area was isolated away from the tumor tissue. Tumor tissue was placed in a Dounce tissue homoginized with 5 mLs of warm DMEM (no FBS). About 1-2 grams of tumor tissue was collected, homogenized, pooled into 50 mL falcon tube, and cells were counted. Cells were spinned @ 12,000 RPM, and FBS was pooled off. Cells were resuspended to equal 1×10^7 cells/mL with sterile PBS. 100 uL of cells/mouse SC at the hind flank region were implanted. This process was repeated one more time before conducting brei tumor efficacy study.
Flow cytometry was performed to obtain a more extensive cellular subset analysis. In particular, the study examined T cell vs. Myeloid cells, Myeloid cell subsets, Regulatory vs. effector T cells, and Tumor markers vs. WBC (e.g., PD-L1 expression on tumor).
Different populations of tumor-associated myeloid cells can be identified by flow cytometry, e.g., monocytic immature myeloid cells (iMC), Granulocytic iMCs/Neutrophils, Tumor Associated Macrophages (TAMs), and Granulocytic MDSCs. The different populations, and panels for detecting MDSCs, are described in Cancer Discovery 2011; 1:54-67. Tumors may vary in their myeloid cell composition.

LLC tumor brei = LLC tumor brei model, Compound BB with or without cyclophosphamide; format: in vivo, mouse
Protocol: In this experiment, treatment began when tumors reached approx. 150 mm^3—around day 12. Caliper and xenogen images were monitored. Treatment groups n=13-15/group. […] Samples for FACs analysis were collected on day 23 post implant. Using FACS, cells were assayed for the level of CD11b and Gr-1.

4T1 mammary carcinoma = assay: 4T1 breast cancer model (orthotopic / subcutaneous), tumor growth and IHC; format: in vivo, mouse
Protocol: Plasma is collected for pharmokinetic (PK) analysis.
Luciferin measurements were taken twice a week.
Immunohistochemistry was performed to determine the distribution of immune cells within the tumor. In particular, CD11b myeloid cells were examined, as were regulatory vs. effector T cells (CD3, CD4, CD8, FoxP3).

[4] = Oral pharmacokinetics of Compound BB in monkey; format: in vivo; conditions: 5 mg/kg oral
Text: as §1

Lewis Lung Carcinoma [5] = assay: Lewis Lung Carcinoma model; format: in vivo; conditions: single agent
[6] = test system: LPS-induced neutrophil influx into BALF; assay: LPS-induced neutrophilia in rats, oral administration; format: in vivo; conditions: rat, p.o., 4 hours post-LPS challenge; dose dependent
Protocol: This study also includes assessment of the exposure to the compounds in plasma and lung tissues.
Ref C is budesonide p.o. The compound was administered p.o. and about 1 hour later, LPS was administered intra-tracheally and plasma was collected. After about 5 hours, plasma and bronchoalveolar lavage samples were collected.

[7] = test system: bone marrow cells differentiating into MDSCs; assay: Myeloid Derived Suppressor Cell differentiation assay (VEGF, ARG1); format: cell-based
Protocol: A similar experiment was performed on bone marrow cells differentiating into MDSCs.

[8] = Oral pharmacokinetics of Compound BB in dog; format: in vivo; conditions: 5 mg/kg oral
Text: as §1

[9] = test system: RANKL driven differentiation of osteoclasts; assay: Osteoclast differentiation assay (TRAP) from bone marrow macrophages; format: cell-based, mouse; conditions: 6 days
Protocol: Long bones from young C57B6 mice were harvested and bone marrow was extruded by gentle lavage of the bone marrow cavities with a 28 gage needle. The cells were screened, and red blood cells were removed using red blood cell lysis buffer (Sigma). Bone marrow cells were differentiated to macrophages using 20 ng/ml mouse MCSF (RnD systems) for 3 days (RPMI and 20% FCS). The cell were washed with PBS, and lifted with Accutase for 10 minutes.
The bone marrow macrophage cells were plated at 150,000 cells per well in a 96 well plate in a MEM 10% FCS. […] Then 25 ng/ml mouse MCSF with or without mouse RANKL (100 ng/ml, RnD systems) was added for 6 days. Media changes (including drugs) were done at day 3 and day 5. The cells were then fixed and stained with the tartrate resistant acid phosphatase (TRAP) assay kit from Sigma according to the manufactures instructions. TRAP positive cells (osteoclasts and cells undergoing an osteoclastic differentiation) in a transect of the triplicate wells (at 20× […]) were manually counted by going through the widest part of each well.

MC38 tumor cells = assay: MC38 colon cancer model; format: in vivo, mouse
Protocol: In this model, a syngeneic colon cancer cell line is run subcutaneously. The experimental setup was as follows.
The cell injection volume was 0.05 ml per mouse. When tumors reached an average size of 80-100 mm^3, a pair match was made and treatment began. The tumor was measured by caliper biweekly.
The dosing volume was 5 mL/kg.
For all animals, blood was collected by terminal cardiac puncture under isoflurane anesthesia. The blood was processed for plasma. In addition, tumor samples were collected.
At study end, tumors were isolated, fixed in 10% neutral buffered formalin and embedded in paraffin for histologic analysis. […] T-cells within the tumor sections were identified utilizing a CD3-specific antibody via automated immunohistochemistry equipment (Ventana). Once stained, slides were digitalized via Aperio slide scanning equipment. Next, stained tumor sections were quantified via Definians software to assess the percentage of CD3 positive cells within each tumor.

4T1 breast cancer = assay: Subcutaneous 4T1 breast cancer model; format: in vivo
GL261-Luc = GL261-Luc murine glioblastoma subcutaneous model; format: in vivo, mouse; conditions: GL-261 syngeneic glioma, 15 mg/kg QD, PO
Text: In some cases, the GL261 glioblastoma model is used. This is a syngeneic glioblastoma multiform model run subcutaneously or orthotopically, and is described in more detail in the examples provided herein. In some embodiments, the model has previously been treated with radiation therapy but there is a recurrence of the cancer. Compounds provided herein can be administered to models with a recurrence or relapse of cancer after prior treatment.

P-GP (P-glycoprotein 1) = P-GP (P-glycoprotein 1) (Homo sapiens (Human), UniProt P08183); assay: P-gp inhibition; format: in vitro ADME
TMD8 cell line = assay: Combination isobologram in TMD8 cell line; format: cell-based; conditions: combination of Compound AA and Compound BB
[10] = test system: Myeloid Derived Suppressor Cell; assay: Myeloid Derived Suppressor Cell differentiation assay; format: cell-based
[11] = orthotopic 4T1, 7.5 mg/kg PO once daily 3 weeks

Sequence of P-GP (P-glycoprotein 1) (P08183 whole entry, species assumed): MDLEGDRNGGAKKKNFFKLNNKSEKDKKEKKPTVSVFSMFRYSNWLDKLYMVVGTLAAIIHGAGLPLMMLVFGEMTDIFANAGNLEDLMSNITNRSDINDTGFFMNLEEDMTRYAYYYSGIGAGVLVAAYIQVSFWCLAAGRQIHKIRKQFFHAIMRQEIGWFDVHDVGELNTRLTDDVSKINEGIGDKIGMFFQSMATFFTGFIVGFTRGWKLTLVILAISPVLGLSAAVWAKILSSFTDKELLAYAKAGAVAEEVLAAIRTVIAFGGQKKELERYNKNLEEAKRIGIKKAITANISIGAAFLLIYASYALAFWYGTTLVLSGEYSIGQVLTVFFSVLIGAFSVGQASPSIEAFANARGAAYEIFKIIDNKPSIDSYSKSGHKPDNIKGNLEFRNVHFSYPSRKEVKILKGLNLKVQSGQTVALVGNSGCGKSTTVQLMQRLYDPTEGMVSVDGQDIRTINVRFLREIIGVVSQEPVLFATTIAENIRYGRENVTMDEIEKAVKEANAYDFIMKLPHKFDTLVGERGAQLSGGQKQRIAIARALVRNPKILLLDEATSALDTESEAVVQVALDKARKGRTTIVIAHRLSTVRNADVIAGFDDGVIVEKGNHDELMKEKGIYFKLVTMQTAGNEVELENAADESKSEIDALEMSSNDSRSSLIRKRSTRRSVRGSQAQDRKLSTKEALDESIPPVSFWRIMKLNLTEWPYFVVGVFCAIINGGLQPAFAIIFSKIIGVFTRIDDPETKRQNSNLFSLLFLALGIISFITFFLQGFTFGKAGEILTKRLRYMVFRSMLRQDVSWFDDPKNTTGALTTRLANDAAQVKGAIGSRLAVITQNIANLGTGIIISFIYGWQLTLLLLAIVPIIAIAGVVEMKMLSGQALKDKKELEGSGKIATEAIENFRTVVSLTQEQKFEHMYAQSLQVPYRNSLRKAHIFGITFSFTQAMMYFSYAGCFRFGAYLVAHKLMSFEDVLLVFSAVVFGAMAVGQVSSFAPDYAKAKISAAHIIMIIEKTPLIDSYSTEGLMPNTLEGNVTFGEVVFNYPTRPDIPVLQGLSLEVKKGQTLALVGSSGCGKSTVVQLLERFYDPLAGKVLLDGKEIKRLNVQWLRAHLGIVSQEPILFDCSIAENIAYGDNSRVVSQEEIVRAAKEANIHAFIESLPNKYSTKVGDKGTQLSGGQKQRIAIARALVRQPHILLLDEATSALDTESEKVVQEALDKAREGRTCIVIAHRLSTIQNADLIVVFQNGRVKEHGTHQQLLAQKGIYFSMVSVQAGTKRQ

SMILES: C[C@H](NC(=O)c1c(N)nn2cccnc12)c1cc2cccc(C#Cc3cnn(C)c3)c2c(=O)n1-c1ccccc1 [Compound BB]
- Stability in simulated gastric fluid [1]: > 4 h
- Oral exposure (plasma concentrations within 24 hours, FIG. 43) [2]: high
- IC50 (Human hep): 10 to 25 µM
- Number of infiltrating TAMs (flow cytometry, FIG. 38A) (Lewis Lung Carcinoma [3]): the number of infiltrating TAMs was decreased
- Tumor growth (FIGS. 25A and 25B) (Lewis Lung Carcinoma [3]; single agent): demonstrated single agent activity
- CD206 staining (M2 macrophages, FIG. 39) (Lewis Lung Carcinoma [3]; vs control): CD206 staining was reduced
- Tumor growth (FIG. 48) (LLC tumor brei; Compound BB 15 mg/kg QD PO, cyclophosphamide 50 mg/kg EOD IP): reduced tumor growth by about the same amount
- CD206 population in tumor (FACS, FIG. 52) (LLC tumor brei; Compound BB alone or with cyclophosphamide): decrease in the CD206 population
- Tumor growth (FIG. 35) (4T1 mammary carcinoma; 4T1, Compound BB alone 15 mg/kg once daily 2 weeks): achieved a reduction in tumor growth
- CD11b+ myeloid cell staining in viable tumor regions (IHC, FIG. 37A) (4T1 mammary carcinoma; 4T1 tumors, day 13, vs vehicle): decrease in CD11b+ myeloid cell staining
- Total luciferase flux (FIG. 33B) (4T1 mammary carcinoma; [11]): reduced total luciferase flux
- Tumor growth (FIG. 33A) (4T1 mammary carcinoma; [11]): reduced tumor growth
- Time the anti-tumor effect was maintained after discontinuation of treatment (4T1 mammary carcinoma; subcutaneous 4T1): at least 6 days
- Tumor growth (FIG. 34, FIG. 36) (4T1 mammary carcinoma; subcutaneous 4T1, single agent): demonstrated single agent activity
- Oral exposure (plasma concentrations within 24 hours, FIG. 43) [4]: high
- activity in the Lewis Lung Carcinoma model (Lewis Lung Carcinoma [5]): single agent activity
- Neutrophil in bronchoalveolar lavage fluid (BALF) [6]: reduced neutrophil in bronchoalveolar lavage fluid (BALF); also recorded: more profound effect on neutrophil influx
- VEGF and ARG1 in MDSC differentiation assay (FIG. 24) [7]: suppressed both VEGF (FIG. 24A) and ARG1 (FIG. 24B)
- Oral exposure (plasma concentrations within 24 hours, FIG. 43) [8]: high
- RANKL driven differentiation of osteoclasts (TRAP positive cells, FIG. 17) [9]: prevents RANKL driven differentiation of osteoclasts
- Tumor growth (FIG. 29A) (MC38 tumor cells; MC38, monotherapy): significantly inhibited tumor growth
- Intratumoral CD3+ T cells (FIG. 30) (MC38 tumor cells; MC38 tumors, vs vehicle): significantly more intratumoral CD3+ T cells
- tumor growth (4T1 breast cancer; co-administration with docetaxel, paclitaxel, or 5-FU): further reduction in tumor growth
- activity in subcutaneous 4T1 breast cancer model (4T1 breast cancer; single agent): single agent activity
- Total flux (FIG. 47B) (GL261-Luc): reduced the total flux
- Tumor volume (FIG. 47A) (GL261-Luc): reduced tumor volume
- P-GP (P-glycoprotein 1) inhibition (P-GP (P-glycoprotein 1)): appears to be an inhibitor of P-GP
- effect of the combination (isobologram) (TMD8 cell line): synergistic effect
- ARG1 [10]: suppresses
- VEGF [10]: suppresses
